# Data reported in US20070202492A1, “Viral Assay” (University Of Warwick, priority 2004, published 2007).
# Assays:
# APV-luciferase = type: cell-based, avian pneumovirus (APV)
# BS-C-1 cells = experiment: Cell viability, MTT assay; type: cell-based
# From the text: For the negative control, cells were killed with 1% w/v SDS.
# RSV [1] = experiment: microbe, parasite or virus in culture; type: cell-based, human respiratory syncytial virus (RSV)
# APV = experiment: microbe, parasite or virus in culture; type: cell-based, avian pneumovirus (APV)
# RSV [2] = experiment: Reduction in plaque number on BS-C-1 cells; type: cell-based, human respiratory syncytial virus (RSV); conditions: RSV on BS-C-1 cells; 30 μg/ml drug
# RSV [3] = conditions: HeLa cells, Kawana 1987, Watanabe 1994; cited from earlier work
Compound,"Antiviral activity against APV (luciferase reporter) (APV-luciferase; 100 ng/ml, FIG. 3C)","Toxicity to the cells (BS-C-1 cells; 100 ng/ml, FIG. 3D)","CAT expression (RSV [1]; RSV, 50 μg/ml, FIG. 1)","Effect on CAT expression (RSV [1]; RSV, lowest concentration tested, 10 μg/ml, FIG. 1)","EC50 (RSV [1]; human respiratory syncytial virus, BSC-1, read-out: EC50 (50% effective concentration)) [µg/mL]","EC90 (RSV [1]; human respiratory syncytial virus, BSC-1, read-out: EC90 (90% effective concentration)) [µg/mL]","Effect on CAT expression (APV; APV, lowest concentration tested, 10 μg/ml, FIG. 1)","EC50 (APV; avian metapneumovirus, BSC-1, read-out: EC50 (50% effective concentration)) [µg/mL]","EC90 (APV; avian metapneumovirus, BSC-1, read-out: EC90 (90% effective concentration)) [µg/mL]","Inhibition of APV (luciferase reporter) (APV-luciferase; higher concentrations of ribavirin, FIG. 3A)","Toxicity to the cells (BS-C-1 cells; concentrations used in the experiment, FIG. 3B)",Reduction in titre (plaque number) (RSV [2]) [fold],"EC50, published values (RSV [3]) [µg/mL]"
"COc1c(C)c2c(c(O)c1C/C=C(\C)CCC(=O)O)C(=O)OC2 [MPA, mycophenolic acid]",has antiviral activity,not toxic,,,,,,,,,,,
NC(=O)c1ncn([C@@H]2O[C@H](CO)[C@@H](O)[C@H]2O)n1 [ribavirin],,,undetectable,obvious inhibitory effect,4.2,17.1,obvious inhibitory effect,9,25.4,strongly inhibited,not toxic,100,3.1 to 6.2
